Data on five compounds can be found in patent US20080045588A1, “Preparation and utility of substituted amphetamines” (Auspex Pharmaceuticals, Inc., priority 2006, published 2008).

The data set concerns the target CYP2D6 (Homo sapiens, UniProt P10635). The experiment in a line: In vitro inhibition of human cytochrome P450 enzymes (fluorometric, 3-cyano-7-ethoxycoumarin substrate). On the procedure: In vitro Inhibition of Human Cytochrome P450 Enzymes
Solution A: NADPH-Regenerating System
To a glass tube on ice were added sequentially: 2% aqueous solution of sodium bicarbonate (10 mL) in NADP^+ (17 mg), glucose-6-phosphate (78 mg) and glucose-6-phosphate dehydrogenase (60 units).
To a glass tube on ice were added sequentially: 0.5 M KH2PO4 (pH 7.4, 2.4 mL), water (9 mL), CYP2D6 (480 μL of 1 picomol/microliter), and 3-cyano-7-ethoxycoumarin (5 mM in 2% acetonitrile-water, 120 microliter).
Solution A was transferred to a 96-well black plate (80 microliter per well), followed by various concentrations of a solution of N-methyl-1-[3,4-methylenedioxyphenyl]-2-aminopropane in 20% acetonitrile-water (20 microliter per well). The reaction was initiated by adding 100 microliter of solution B to each well of the 96-well plate. The plate was incubated for 30 minutes at 37° C. in the dark. The reaction was stopped by adding 75 microliter of stop buffer (4:1 acetonitrile-0.5 M Tris base) to each well, and the end point was measured in a fluorometer plate reader at λex=409 nm and λem=460 nm.

Like-named read-outs stand apart in the source and are kept apart here.

Sequence of CYP2D6 (P10635 whole entry): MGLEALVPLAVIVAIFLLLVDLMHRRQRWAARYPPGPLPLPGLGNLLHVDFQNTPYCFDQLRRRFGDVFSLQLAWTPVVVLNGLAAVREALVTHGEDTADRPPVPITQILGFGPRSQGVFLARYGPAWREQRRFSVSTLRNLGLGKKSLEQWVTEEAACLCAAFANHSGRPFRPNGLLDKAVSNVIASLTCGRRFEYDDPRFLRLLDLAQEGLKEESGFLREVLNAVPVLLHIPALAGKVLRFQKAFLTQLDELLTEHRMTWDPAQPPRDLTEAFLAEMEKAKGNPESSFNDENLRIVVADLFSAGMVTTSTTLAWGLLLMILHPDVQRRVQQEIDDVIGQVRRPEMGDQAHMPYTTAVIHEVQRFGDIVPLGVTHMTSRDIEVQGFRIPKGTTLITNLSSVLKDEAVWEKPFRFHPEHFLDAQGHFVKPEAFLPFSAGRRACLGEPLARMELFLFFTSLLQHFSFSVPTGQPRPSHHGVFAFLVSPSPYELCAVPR

`[2H]C([2H])([2H])NC(C)Cc1ccc2c(c1)OC([2H])([2H])O2` (single isomer, unassigned) [example 6, d5-N-methyl-1-(3,4-methylenedioxyphenyl)-2-aminopropane] gave an IC50 of 8 µM.
The same measure, in the same setting: next, `[2H]C1([2H])Oc2ccc(CC(C)NC)cc2O1` (single isomer, unassigned) [example 5, d2-N-methyl-1-(3,4-methylenedioxyphenyl)-2-aminopropane]: 8 µM.
On to `N[C@@H]1C[C@H]1c1ccccc1` (racemic) [Tranylcypromine, reference compound], for which the IC50 (read-out: IC50 (inhibition concentration of CYP2D6), CYP2D6, 3-cyano-7-ethoxycoumarin substrate, 30 minutes at 37° C., fluorescence λex=409 nm, λem=460 nm) was found to be 2.4 µM.
Consider `[2H]C(c1ccc2c(c1)OC([2H])([2H])O2)C([2H])(C)NC([2H])([2H])[2H]` (single isomer, unassigned) [example 9, d7-N-methyl-1-(3,4-methylenedioxyphenyl)-2-aminopropane], for which the IC50 was 30 µM.
The compound `CNC(C)Cc1ccc2c(c1)OCO2` (centres unmarked) [N-methyl-1-[3,4-methylenedioxyphenyl]-2-aminopropane, reference compound] yielded an IC50 of 3 µM.
